What is called IC50 is the concentration that inhibits the measured activity by half. The term solubility denotes how much of the substance goes into solution per volume. For orientation: Kp means the ratio of the level in a tissue or fluid to that in plasma or blood. Broadly, the Tmax is the time at which the peak concentration occurs. One may read the fraction unbound as free concentration divided by total concentration.

Results on 3 molecules are retold here after ChEMBL document CHEMBL5154787 (J Med Chem, 2022).

The target in series [1] is 5-hydroxytryptamine receptor 2B (Homo sapiens, UniProt P41595). The experiment in a line: Inhibition of 5HT2B receptor (unknown origin). The series is classed as toxicity.
Series [2] in a line: Solubility of compound in FaSSIF incubated for 24 hrs. It counts as physicochemical.
Series [3] in a line: Solubility of compound at pH 6.5 measured after 24 hrs. The series is classed as physicochemical. To be noted: buffer.
Series [4] can be described thus: Chemical stability of the compound assessed as remaining product at pH 1 measured after 22 hrs. The series is classed as physicochemical. As to conditions: buffer, read-out: Stability.
The nature of series [5]: Solubility of compound at pH 7.4 measured after 24 hrs. The series is classed as physicochemical. To be noted: buffer.
A short description of series [6]: Solubility of compound at pH 4 measured after 24 hrs. As to conditions: buffer. It counts as physicochemical.
In series [7] the test system is Rattus norvegicus. Description: Analgesic activity in STZ induced in diabetic peripheral neuropathic mechanical allodynia in Sprague-Dawley rat assessed as reduction in pain response at 3 mg/kg, po measured up to 24 hrs by Hargreaves test relative to control. Set-up: scale not given: the % may be the effect or the level left. The series is classed as functional.
Series [8] has as its system Rattus norvegicus. Description: Analgesic activity in STZ induced in diabetic peripheral neuropathic mechanical allodynia in Sprague-Dawley rat assessed as reversal in mechanical allodynia by measuring inhibition of pain response at 1 mg/kg, po measured up to 24 hrs by Hargreaves test relative to control. The series is classed as functional. Set-up: scale not given: the % may be the effect or the level left.

Series [9] in a line: Solubility of compound at pH 1 measured after 24 hrs. The series is classed as physicochemical. As to conditions: buffer.
Series [10] can be described thus: Solubility of compound at pH 3 measured after 24 hrs. The series is classed as physicochemical. As to conditions: buffer.
Series [11] can be described thus: Chemical stability of the compound assessed as remaining product at pH 7.4 measured after 22 hrs. The series is classed as physicochemical. As to conditions: buffer, read-out: Stability.
The nature of series [12]: Solubility of compound in FessiF incubated for 24 hrs. It counts as physicochemical.
The nature of series [13]: Solubility of compound at pH 5 measured after 24 hrs. It counts as physicochemical. As to conditions: buffer.
Series [14] has as its target Death-associated protein kinase 1 (Homo sapiens, UniProt P53355). The experiment in a line: Inhibition of DAPK1 (unknown origin).
Series [15] is described as follows: Genotoxicity in chinese hamster CHO cells without metabolic activation system at 59 uM by IVMN assay. It counts as toxicity, cell-based, Cricetulus griseus.
Series [16] can be described thus: Solubility of compound at pH 2 measured after 24 hrs. The series is classed as physicochemical. To be noted: buffer.
Series [17] is described as follows: Genotoxicity in chinese hamster CHO cells in presence of metabolic activation system at 169 uM by IVMN assay. It counts as toxicity, cell-based, Cricetulus griseus.
Series [18] deals with Rattus norvegicus. Description: Analgesic activity in STZ induced in diabetic peripheral neuropathic mechanical allodynia in Sprague-Dawley rat assessed as reduction in pain response at 10 mg/kg, po measured up to 24 hrs by Hargreaves test relative to control. It counts as functional. Further details: scale not given: the % may be the effect or the level left.
The target in series [19] is AP2-associated protein kinase 1 (Homo sapiens, UniProt Q2M2I8). The experiment in a line: Inhibition of bacterially expressed GST-Xa-tagged human AAK1 using 5-FAM-labelled Aha-KEEQSQITSQVTGQIGWR-NH2 peptide as substrate incubated for 3 hrs in presence of ATP by electrophoretic analysis.
A short description of series [20]: Inhibition of TAK/TAB (unknown origin).
In series [21] the target is Rho-associated protein kinase 2 (Homo sapiens, UniProt O75116). Description: Inhibition of ROCK2 (unknown origin).
In series [22] the target is Acetylcholine receptor subunit alpha (Homo sapiens, UniProt P02708). The experiment in a line: Inhibition of nicotinic acetylcholine receptor alpha 1 (unknown origin). It counts as toxicity.
A short description of series [23]: Ratio of drug concentration in spinal cord to plasma in CCI induced thermal hyperalgesia in Sprague-Dawley rat at 3 mg/kg, po measured at 5.5 hrs post dose. The series is classed as ADME, organism-based.
Series [24] is described as follows: Ratio of drug concentration in spinal cord to plasma in CCI induced thermal hyperalgesia in Sprague-Dawley rat at 1 mg/kg, po measured at 5.5 hrs post dose. It counts as ADME, organism-based.
The target in series [25] is Solute carrier organic anion transporter family member 1B1 (Homo sapiens, UniProt Q9Y6L6). The experiment in a line: Inhibition of OATP1B1 (unknown origin).
The target of series [26] is ATP-binding cassette sub-family C member 2 (Homo sapiens, UniProt Q92887). The experiment in a line: Inhibition of MRP2 (unknown origin).
Chain of ATP-binding cassette sub-family C member 2 (Q92887 whole entry): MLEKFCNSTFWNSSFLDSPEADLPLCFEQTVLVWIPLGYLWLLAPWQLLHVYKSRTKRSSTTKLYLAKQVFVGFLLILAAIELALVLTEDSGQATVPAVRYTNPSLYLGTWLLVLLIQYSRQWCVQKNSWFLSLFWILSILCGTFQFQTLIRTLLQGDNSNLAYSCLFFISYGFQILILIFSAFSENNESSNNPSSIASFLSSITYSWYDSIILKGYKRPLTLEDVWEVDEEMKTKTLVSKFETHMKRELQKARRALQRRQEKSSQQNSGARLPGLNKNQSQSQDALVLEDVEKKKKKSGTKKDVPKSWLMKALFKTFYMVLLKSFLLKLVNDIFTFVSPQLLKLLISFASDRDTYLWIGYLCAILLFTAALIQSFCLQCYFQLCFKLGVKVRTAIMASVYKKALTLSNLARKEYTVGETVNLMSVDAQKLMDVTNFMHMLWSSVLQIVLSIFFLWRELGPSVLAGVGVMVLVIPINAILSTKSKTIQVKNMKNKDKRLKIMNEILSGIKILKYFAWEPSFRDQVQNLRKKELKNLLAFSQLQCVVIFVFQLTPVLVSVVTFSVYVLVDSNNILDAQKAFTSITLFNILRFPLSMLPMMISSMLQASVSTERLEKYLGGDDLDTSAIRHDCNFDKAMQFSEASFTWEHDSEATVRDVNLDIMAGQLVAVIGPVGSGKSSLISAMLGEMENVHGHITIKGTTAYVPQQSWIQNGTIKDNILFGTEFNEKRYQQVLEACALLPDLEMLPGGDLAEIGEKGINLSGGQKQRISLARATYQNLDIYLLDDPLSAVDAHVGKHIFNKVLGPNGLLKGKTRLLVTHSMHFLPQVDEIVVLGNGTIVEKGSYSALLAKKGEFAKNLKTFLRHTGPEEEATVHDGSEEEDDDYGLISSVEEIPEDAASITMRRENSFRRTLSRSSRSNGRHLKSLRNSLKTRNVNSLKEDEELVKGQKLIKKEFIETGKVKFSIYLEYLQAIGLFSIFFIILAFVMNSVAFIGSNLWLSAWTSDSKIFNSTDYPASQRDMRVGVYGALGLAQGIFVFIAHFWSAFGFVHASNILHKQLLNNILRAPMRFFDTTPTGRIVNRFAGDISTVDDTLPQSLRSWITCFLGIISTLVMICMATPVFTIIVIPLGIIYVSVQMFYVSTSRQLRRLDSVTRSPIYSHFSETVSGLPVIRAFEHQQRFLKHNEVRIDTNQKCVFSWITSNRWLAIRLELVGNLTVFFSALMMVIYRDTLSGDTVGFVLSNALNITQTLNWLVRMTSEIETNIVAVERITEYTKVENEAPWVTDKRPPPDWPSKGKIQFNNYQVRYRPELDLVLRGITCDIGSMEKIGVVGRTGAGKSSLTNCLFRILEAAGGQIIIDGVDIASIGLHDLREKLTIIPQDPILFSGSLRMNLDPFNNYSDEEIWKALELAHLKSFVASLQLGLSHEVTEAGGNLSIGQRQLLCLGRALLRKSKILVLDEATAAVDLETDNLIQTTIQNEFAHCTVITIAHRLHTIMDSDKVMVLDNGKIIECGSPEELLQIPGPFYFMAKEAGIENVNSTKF
For a further series, the target named is Bile salt export pump (Homo sapiens, UniProt O95342). The experiment in a line: Inhibition of BSEP (unknown origin).
For series [27], the target named is Hepatic sodium/bile acid cotransporter (Homo sapiens, UniProt Q14973). The experiment in a line: Inhibition of NTCP (unknown origin).
Series [28] deals with Rattus norvegicus. Description: Analgesic activity in CCI induced thermal hyperalgesia in Sprague-Dawley rat assessed as reduction in thermal hyperalgesia by measuring inhibition of pain response at 3 mg/kg, po measured after 5.5 hrs by Hargreaves test relative to control. Set-up: scale not given: the % may be the effect or the level left. The series is classed as functional.

The nature of series [29]: Ratio of drug concentration in spinal cord to plasma in rat at 3 mg/kg, po measured at 4 hrs post dose. The series is classed as ADME, organism-based.
Series [30] is described as follows: Drug concentration in CCI induced thermal hyperalgesia in Sprague-Dawley rat spinal cord at 3 mg/kg, po measured after 5.5 hrs. The series is classed as ADME, organism-based. As to conditions: read-out: Ct.
Series [31] in a line: Tmax in rat at 3 mg/kg, po. It counts as ADME, organism-based. As to conditions: in vivo.
Series [32] can be described thus: Protein binding in dog plasma assessed as unbound fraction measured after 3 hrs by LC/MS/MS analysis. It counts as ADME, cell-free, Canis lupus familiaris.
Series [33] concerns Rattus norvegicus. The experiment in a line: Analgesic activity in CCI induced thermal hyperalgesia in Sprague-Dawley rat assessed as reduction in thermal hyperalgesia by measuring inhibition of pain response at 1 mg/kg, po measured after 5.5 hrs by Hargreaves test relative to control. The series is classed as functional. Set-up: scale not given: the % may be the effect or the level left.

Series [34] is described as follows: Protein binding in cynomolgus monkey plasma assessed as unbound fraction measured after 3 hrs by LC/MS/MS analysis. The series is classed as ADME, cell-free, Macaca fascicularis.
Series [35] addresses Solute carrier family 22 member 6 (Homo sapiens, UniProt Q4U2R8). Description: Inhibition of OAT1 (unknown origin).
The target in series [36] is TRAF2 and NCK-interacting protein kinase (Homo sapiens, UniProt Q9UKE5). The experiment in a line: Inhibition of TNIK (unknown origin).
Series [37] in a line: In vivo protein occupancy at AAK1 in rat at 3 mg/kg, po measured after 4 hrs. It counts as functional.
Series [38] concerns the target Citron Rho-interacting kinase (Homo sapiens, UniProt O14578). The experiment in a line: Inhibition of CRIK (unknown origin).
Series [39] is described as follows: Plasma concentration in CCI induced thermal hyperalgesia in Sprague-Dawley rat at 1 mg/kg, po measured at 5.5 hrs post dose. The series is classed as ADME, organism-based.
Series [40] has as its target Solute carrier organic anion transporter family member 1B3 (Homo sapiens, UniProt Q9NPD5). Description: Inhibition of OATP1B3 (unknown origin).
The target in series [41] is Organic anion transporter 3 (Homo sapiens, UniProt Q8TCC7). The experiment in a line: Inhibition of OAT3 (unknown origin).
The nature of series [42]: Drug concentration in rat spinal cord at 3 mg/kg, po measured after 4 hrs. It counts as ADME, organism-based. To be noted: read-out: Ct.
Series [43] in a line: Plasma concentration in CCI induced thermal hyperalgesia in Sprague-Dawley rat at 3 mg/kg, po measured at 5.5 hrs post dose. The series is classed as ADME, organism-based.
Series [44] in a line: Plasma concentration in rat at 3 mg/kg, po measured after 4 hrs. It counts as ADME, organism-based.
Series [45] concerns Rattus norvegicus. Description: Analgesic activity in STZ induced in diabetic peripheral neuropathic path mechanical allodynia in Sprague-Dawley rat assessed as reversal in mechanical allodynia by measuring inhibition of pain response at 1 mg/kg, po measured up to 5.5 hrs by Hargreaves test relative to control. The series is classed as functional. Further details: scale not given: the % may be the effect or the level left.

Series [46] can be described thus: Protein binding in mouse brain assessed as unbound fraction at 1 uM measured after 4 hrs by LC/MS/MS analysis. It counts as ADME, tissue-based.

≈ marks a conversion by molar mass, not a printed value.

Chain of Death-associated protein kinase 1 (P53355 whole entry): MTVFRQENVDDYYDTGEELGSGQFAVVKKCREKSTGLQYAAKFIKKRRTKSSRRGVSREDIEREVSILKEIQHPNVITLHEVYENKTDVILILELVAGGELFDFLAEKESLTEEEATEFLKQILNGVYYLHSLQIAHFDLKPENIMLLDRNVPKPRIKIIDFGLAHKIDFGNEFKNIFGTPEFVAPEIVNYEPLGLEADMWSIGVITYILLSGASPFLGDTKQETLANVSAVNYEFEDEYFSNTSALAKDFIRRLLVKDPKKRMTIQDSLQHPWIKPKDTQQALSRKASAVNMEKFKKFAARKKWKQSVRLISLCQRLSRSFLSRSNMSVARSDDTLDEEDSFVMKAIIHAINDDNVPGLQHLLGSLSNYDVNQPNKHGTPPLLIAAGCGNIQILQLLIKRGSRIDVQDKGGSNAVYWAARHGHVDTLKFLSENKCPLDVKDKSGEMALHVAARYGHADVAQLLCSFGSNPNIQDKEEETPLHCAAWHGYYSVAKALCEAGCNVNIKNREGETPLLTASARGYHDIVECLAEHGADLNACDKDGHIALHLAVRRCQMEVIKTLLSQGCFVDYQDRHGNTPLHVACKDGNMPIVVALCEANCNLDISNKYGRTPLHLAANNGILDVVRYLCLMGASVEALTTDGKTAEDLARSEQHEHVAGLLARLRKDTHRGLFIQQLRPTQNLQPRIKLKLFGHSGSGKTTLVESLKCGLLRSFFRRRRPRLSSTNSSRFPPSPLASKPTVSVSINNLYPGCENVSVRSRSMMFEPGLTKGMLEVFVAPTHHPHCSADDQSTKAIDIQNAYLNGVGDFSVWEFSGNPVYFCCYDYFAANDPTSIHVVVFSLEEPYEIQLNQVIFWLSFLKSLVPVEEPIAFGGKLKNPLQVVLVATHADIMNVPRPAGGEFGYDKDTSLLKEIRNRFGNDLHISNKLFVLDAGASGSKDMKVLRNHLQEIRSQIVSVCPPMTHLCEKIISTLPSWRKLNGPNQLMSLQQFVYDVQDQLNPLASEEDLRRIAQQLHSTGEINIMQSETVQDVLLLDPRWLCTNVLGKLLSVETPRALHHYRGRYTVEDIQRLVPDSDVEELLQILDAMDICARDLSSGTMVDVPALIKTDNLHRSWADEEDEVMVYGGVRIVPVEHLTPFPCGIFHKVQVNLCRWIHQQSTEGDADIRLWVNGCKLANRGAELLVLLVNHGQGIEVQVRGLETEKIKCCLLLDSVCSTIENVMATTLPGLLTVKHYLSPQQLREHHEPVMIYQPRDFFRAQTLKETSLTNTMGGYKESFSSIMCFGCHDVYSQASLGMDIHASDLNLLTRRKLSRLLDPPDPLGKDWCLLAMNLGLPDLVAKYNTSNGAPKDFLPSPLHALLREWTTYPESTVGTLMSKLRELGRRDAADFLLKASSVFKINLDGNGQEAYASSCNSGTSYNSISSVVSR
Chain of Citron Rho-interacting kinase (O14578 whole entry): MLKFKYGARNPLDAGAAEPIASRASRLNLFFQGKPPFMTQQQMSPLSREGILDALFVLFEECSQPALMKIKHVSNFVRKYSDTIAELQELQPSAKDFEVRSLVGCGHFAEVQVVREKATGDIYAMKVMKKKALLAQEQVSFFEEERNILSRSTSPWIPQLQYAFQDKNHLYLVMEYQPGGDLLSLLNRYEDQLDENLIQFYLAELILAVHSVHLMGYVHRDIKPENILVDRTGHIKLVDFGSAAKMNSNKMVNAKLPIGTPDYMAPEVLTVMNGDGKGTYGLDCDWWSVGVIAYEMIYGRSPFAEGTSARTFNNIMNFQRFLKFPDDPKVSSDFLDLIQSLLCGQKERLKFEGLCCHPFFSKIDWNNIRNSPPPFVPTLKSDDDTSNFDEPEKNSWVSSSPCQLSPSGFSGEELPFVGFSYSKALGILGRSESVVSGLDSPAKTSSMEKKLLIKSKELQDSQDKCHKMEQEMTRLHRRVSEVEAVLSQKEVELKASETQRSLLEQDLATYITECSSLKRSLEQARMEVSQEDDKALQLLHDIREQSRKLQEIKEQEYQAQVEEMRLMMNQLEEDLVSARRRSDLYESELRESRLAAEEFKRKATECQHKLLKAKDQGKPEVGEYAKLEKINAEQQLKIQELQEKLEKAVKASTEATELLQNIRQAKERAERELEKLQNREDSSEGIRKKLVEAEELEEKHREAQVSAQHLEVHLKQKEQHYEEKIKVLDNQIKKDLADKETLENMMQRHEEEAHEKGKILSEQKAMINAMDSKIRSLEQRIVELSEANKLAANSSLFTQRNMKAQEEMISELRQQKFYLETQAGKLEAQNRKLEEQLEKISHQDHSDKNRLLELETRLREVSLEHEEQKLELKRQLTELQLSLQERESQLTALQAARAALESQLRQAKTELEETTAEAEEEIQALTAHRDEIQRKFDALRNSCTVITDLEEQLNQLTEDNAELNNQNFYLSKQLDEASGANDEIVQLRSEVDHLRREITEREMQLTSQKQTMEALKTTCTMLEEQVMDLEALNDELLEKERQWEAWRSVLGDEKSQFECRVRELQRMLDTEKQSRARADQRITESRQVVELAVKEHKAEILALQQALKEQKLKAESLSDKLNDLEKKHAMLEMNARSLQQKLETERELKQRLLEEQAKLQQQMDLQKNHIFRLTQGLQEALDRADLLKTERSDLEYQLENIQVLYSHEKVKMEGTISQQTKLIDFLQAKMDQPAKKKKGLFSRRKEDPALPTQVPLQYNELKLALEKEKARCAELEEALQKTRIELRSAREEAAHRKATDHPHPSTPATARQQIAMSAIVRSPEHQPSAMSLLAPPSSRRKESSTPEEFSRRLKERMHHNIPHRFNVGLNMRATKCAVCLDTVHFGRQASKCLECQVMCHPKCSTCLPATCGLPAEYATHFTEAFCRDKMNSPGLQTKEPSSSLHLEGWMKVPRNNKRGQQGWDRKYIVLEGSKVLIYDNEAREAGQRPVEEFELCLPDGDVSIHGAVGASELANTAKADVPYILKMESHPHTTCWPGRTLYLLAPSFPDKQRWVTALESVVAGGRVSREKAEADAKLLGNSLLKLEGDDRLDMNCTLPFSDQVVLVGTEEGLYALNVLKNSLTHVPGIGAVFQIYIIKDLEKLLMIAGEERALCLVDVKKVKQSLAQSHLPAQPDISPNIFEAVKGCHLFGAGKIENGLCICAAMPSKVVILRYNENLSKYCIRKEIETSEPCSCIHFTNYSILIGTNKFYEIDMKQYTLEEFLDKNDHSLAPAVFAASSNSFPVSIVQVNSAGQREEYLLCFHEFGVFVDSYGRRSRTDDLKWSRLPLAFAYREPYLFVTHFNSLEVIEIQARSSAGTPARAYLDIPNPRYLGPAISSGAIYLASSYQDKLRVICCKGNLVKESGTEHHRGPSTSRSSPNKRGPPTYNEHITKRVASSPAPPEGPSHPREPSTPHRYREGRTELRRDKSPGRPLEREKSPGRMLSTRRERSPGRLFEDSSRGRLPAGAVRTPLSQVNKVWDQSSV

Take `COC(=O)Nc1cc(-c2ccc(OC[C@@](C)(N)CC(C)C)c(C)n2)ccn1`: the half-inhibitory concentration (IC50) came out at 0.54 µM in [1] and 1.4 µM in series [14]. The solubility at 24 h in series [2] was greater than 1000 µg/mL; in series [3], greater than 1000 µg/mL; in series [5], 288 µg/mL (≈ 773 µM); in [6], greater than 1000 µg/mL; in series [9], greater than 1000 µg/mL; in series [10] it was greater than 1000 µg/mL. Also, the solubility at 24 h in [12], in [13] and in series [16] was greater than 1000 µg/mL throughout. In addition, the remaining at 22 h in series [4] and in series [11] was 100% in each case. Moreover, the Activity in the series with Rattus norvegicus [7] is on record as 60%; in the series on Rattus norvegicus [8], 40%; in series [15], “Non-Toxic”; in [17] it was “Non-Toxic”; with Rattus norvegicus [18] it was 80%.

With `COC(=O)Nc1cc(-c2cnc(OC[C@@](C)(N)CC(C)C)c(C)c2)ccn1`, the half-maximal inhibitory concentration (IC50) in series [19] stood at 0.0009 µM; in series [20] it was 0.18 µM; in series [21], 1.3 µM; in series [22], 2.2 µM.

`CC(C)C[C@](C)(N)COc1cnc(-c2ccnc(C(F)F)c2)cc1C(F)F`: the Kp at 5.5 h in series [23] stood at 13; in series [24], 18. Further, the IC50 was greater than 50 µM in series [25]; greater than 50 µM in series [26]; greater than 50 µM on Bile salt export pump; greater than 50 µM in [27]; greater than 50 µM in series [35]; 2 µM in series [36]. The figures for the IC50 in series [38], in series [40] and in series [41] were 1.2 µM, greater than 50 µM and greater than 50 µM, respectively. Also, the Activity in the series with Rattus norvegicus [28] was found to be 100%; in the series on Rattus norvegicus [33], 80%; in series [37], 95%; in the series on Rattus norvegicus [45], 50%. The Kp at 4 h in [29] is 17.6. Further, the concentration at 5.5 h in [30] was determined as 378 nM; in series [39], 12 nM; in series [43], 29 nM. Besides, the time of peak concentration (Tmax) in series [31] worked out at 3.7 h. For the same molecule, the results for the fraction unbound at 3 h in [32] and in series [34] were 0.08 and 0.075, respectively. In addition, the values for the concentration at 4 h in [42] and in series [44] were 825 nM and 47 nM, respectively. Also, the fraction unbound at 4 h, 1 µM in [46] came out at 0.018.
